Source: US20250195576A1, “METHOD TO GENERATE MORE EFFICIENT CAR-T CELLS” (INSTITUT NATIONAL DE LA SANTÉ ET DE LA RECHERCHE MÉDICALE, priority 2022, published 2025)

Legend:
[1] = system: ERK and AKT signaling proteins; experiment: Western blot of ERK and AKT phosphorylation upon TCR stimulation; type: cell-based, human; settings: after TCR stimulation, including at steady state; data not shown
Experimental: Western blot analysis. Protein expression levels were analyzed by Western blot as described (Froehlich et al. 2016). Blotting with primary was followed by goat-anti-mouse- or goat-anti-rabbit-HRP (Jackson ImmunoReseach) incubation and ECL revelation (GE Healthcare, #RPN2106).

[2] = system: Human primary T lymphocytes; experiment: Viability assay (propidium iodide); type: cell-based; settings: in vitro culture
Experimental: PBT were treated with AS1842856 (500 nM) or vehicle only. Every seven days, some cells from the two conditions were collected and labeled with Propidium Iodide (PI). […] Significance was assessed using 2-way Anova test.
Viability assay. Cells were collected and propidium iodide was added (10 μg/ml, Invitrogen). Samples were run on FACSCalibur (Becton Dickinson) and analyzed using FlowJo software.

[3] = system: Human primary T lymphocytes; experiment: Granzyme B expression by intracellular flow cytometry; type: cell-based
Experimental: (§1) FIGS. 1A to 1C: FOXO1 inhibition allows increase number of cytotoxic T cells and increased their activity. Human primary T lymphocytes from healthy donor (PBT) were treated with AS1842856 (500 nM) or equivalent of DMSO for 7 days. (1A) Cells were surface labeled with anti-CD4 and anti-CD8, next fixed and permeabilized before labeled with antibodies against Granzyme B. The graphs present the values correspond to the mean±SEM obtained with three independent donors. Significance was assessed using a paired Student t-test. (1B) At the end of the culture, cells were stimulated by PMA and ionomycin during three hours. After CD4 and CD8 labelling, intracellular detection of TNF-α was performed using an antibody against TNF-α. The values correspond to the mean±SEM obtained with three independent donors. Significance was assessed using a paired Student t-test. (1C) CD8 T cells from vehicle or treated cells were purified and co-cultured with P815 target cells pre-coated with anti-CD3 mAb, percentage of lysis was evaluated by 51Cr release assay at different effector: target ratios. The values correspond to the mean±SEM obtained with three independent donors. Significance was assessed using 2-way Anova test.
Cells. […]
(§2) Flow cytometry. […] After wash with PBS, cells were immediately analyzed by flow cytometry. […] After two washes, cells were run on BD LSRII (BD Biosciences) and analyzed using FlowJo software.

[4] = system: Human primary T lymphocytes; experiment: TNF-α intracellular labeling and cytokine secretion (MSD assay); type: cell-based
Experimental: as §1, §2

[5] = system: Human primary T lymphocytes; experiment: Chemokine receptor membrane expression by flow cytometry; type: cell-based; settings: data not shown
Experimental: (§3) Flow cytometry. Cells were washed and stained with antibodies diluted in PBS (Thermo Fisher Scientific; cat #10010001) supplemented with 0.1% BSA (Sigma-Aldrich, cat #A7030-500G) for 20 minutes at 4° C. After wash with PBS, cells were immediately analyzed by flow cytometry. For intracellular staining, cells were fixed with 4% paraformaldehyde (PFA) for 10 minutes at room temperature, permeabilized using a buffer containing 0.1% Saponin (Sigma-Aldrich, 84510) in PBS and stained after two PBS washes using antibodies diluted in the same saponin buffer for 30 minutes at 4° C. After two washes, cells were run on BD LSRII (BD Biosciences) and analyzed using FlowJo software.

[6] = system: Human primary T lymphocytes; experiment: Calcium measurements upon TCR stimulation; type: cell-based; settings: compared to untreated cells; data not shown
Experimental: Calcium Measurements. T cells were incubated for 20 minutes at 37° C. with 1.5 μM Fura-2/AM (Molecular Probes, F1225). Experiments were performed at 37° C. in mammalian saline buffer (140 mM NaCl, 5 mM KCl, 1 mM CaCl2, 1 mM MgCl2, 20 mM HEPES, 11 mM glucose). Calcium measurements by spectrofluorimetry were performed as previously described (Conche et al. 2009) with a Cary Eclipse spectrofluorimeter (Varian) (excitation: 340 and 380 nm; emission: 510 nm).

[7] = system: Human primary T lymphocytes; experiment: T cell subsets and immune checkpoint expression by flow cytometry; type: cell-based
Experimental: PBT were treated with 500 nM of AS1842856 or vehicle only for 7 days. (3A) Memory subsets composition in vehicle or AS1842856 CD4 (upper panel) and CD8 (lower panel) cells. TN are CD45RA+, CD27+, CD95−; TSCM are CD45RA+, CD27+, CD95+; TCM are CD45RA−, CD27+; TEM are CD45RA−, CD27− and Teff are CD45RA+, CD27−. The graphs show the mean percentage±SEM of the different subsets in vehicle or AS1842856 conditions on CD4 (upper panel) and CD8 (lower panel) T cells obtained with five independent donors. Significance was assessed using 1-way Anova test. (3B) CTLA-4, PD-1 and TIGIT expressions on CD4 (upper panel) and CD8 (lower panel) T cells were measured by FACS. The graphs show the MFI±SEM obtained with five independent donors. Significance was assessed using a paired Student t-test.
as §3

FOXO1 = experiment: CD62L expression by cytometry; type: cell-based, human
Experimental: Cell transfection. Cells were transfected by nucleofection using the Human T Cell Nucleofector solution (Lonza, VPA-1002) and program U-014 of the Nucleofector AMAXA. For CRISPR, 2×10^6 cells were nucleofected with 75 pmol of Cas9 protein (Thermo Fisher, #A36499) and one RNA guide targeting the FOXO1 gene (Thermo Fisher, #sgRNACRISPR889854_SGM Foxo1) at a 1:1 molar ratio. To induce FOXO1 expression, 5×10^6 cells were transfected with 5 μg DNA of the pEGFP-FOXO1-T24A-S256A-S319A-H215R plasmid (Nagashima et al., 2010) or pEGFP-N1 (clontech) as control. Jurkat T cells (5×106 in RPMI 1640 medium) were electroporated at 260 V, 1000 μF in 4-mm polycarbonate cuvettes (Eurogentec) with 5 μg of the GFP, the triple mutant T24A/S256A/S319A FOX01-GFP (FOXO1-TM-GFP) or the FOXO1-TM-GFP DNA binding mutant plasmids (FOXO1-TM-H215R-GFP) (Fabre et al. 2008). Four hours later, AS1842856 was added or not in the culture. At 48 hours, CD62L expression was analyzed by cytometry.
Flow cytometry. Cells were washed and stained with antibodies diluted in PBS (Thermo Fisher Scientific; cat #10010001) supplemented with 0.1% BSA (Sigma-Aldrich, cat #A7030-500G) for 20 minutes at 4° C. After wash with PBS, cells were immediately analyzed by flow cytometry. […] After two washes, cells were run on BD LSRII (BD Biosciences) and analyzed using FlowJo software.

[8] = system: Human primary T lymphocytes; experiment: In vitro proliferation assay (CFSE dilution, anti-CD3/CD28 beads); type: cell-based; settings: data not shown
Experimental: Proliferation assay. In vitro proliferation assay of primary T cells was assessed by dilution of Cell Trace Fluorescent Green kit (CFSE, Invitrogen, cat #C34554). After two washes in RPMI 1640 GlutaMAX medium, cells were resuspended at 4×10^6 cells per ml in a 5 μM Cell Trace Fluorescent Green solution. Cells were incubated in dark at 37° C. for 20 minutes. After the loading, cells were washed with a volume of hot RPMI medium supplemented with 10% Human AB serum, penicillin and streptomycin (50U/ml and 50 μg/m respectively) corresponding to 5 times the loading volume. Cell suspension was collected and dispensed into 96-wells round-bottom plates (2×10^5 cells per well) and stimulated using anti-CD3/CD28 coated-beads Dynabeads (Invitrogen, #11131D) for 3 days. Samples were run on BD LSR Fortessa and analyzed using FlowJo software. For in vivo proliferation assay, T^AS cells were labeled by dilution of CFSE as for in vitro proliferation assay described above. Then 10^7 CFSE^+ cells per immunodificient NSG mouse (NOD.Cg-Prkde^scid I12rg^tm1WjI/SzJ mouse, cat #JAX: 005557, Charles River) resuspended in 100 μL PBS supplemented by 10% FBS were intravenously injected in the retro-orbital vein. 5, 9 or 12 days after injection, spleens were collected to be minced and meshed on the top of a 40 μm cell strainer (Thermo Fisher, #22363547). […] Data were analyzed using FlowJo software.

CCn1cc(C(=O)O)c(=O)c2c(N)c(F)c(NC3CCCCC3)cc21 [AS1842856]
Phosphorylation of AKT [1]: hypophosphorylation
Phosphorylation of ERK [1]: hyperphosphorylation
T cell viability [2]: promotes
Toxicity on T cells [2]: no toxicity
Granzyme B expression in CD8 subset ([3]; AS1842856 500 nM, 7 days, CD8 T cells): upregulated
Increase of granzyme B expression ([3]; same conditions as Foxo1 invalidation by CRISPR, data not shown): more than two-fold increase
TNF-α expression (percentage of cells, intracellular labeling) ([4]; 500 nM 7 days, then PMA and ionomycin three hours): significantly increased
TNF-α secreted in supernatant (MSD assay) ([4]; data not shown): confirmed
CCR4 membrane expression [5]: increase
CCR6 membrane expression [5]: increase
CX3CR1 membrane expression [5]: increase
CXCR4 membrane expression [5]: significant decrease
Calcium influx induced upon TCR stimulation [6]: less rapid and of a lower magnitude
CTLA-4 expression [7]: no significant modification
Markers of Th1 (T-bet+), Th2 (GATA3+) and Treg (FOXP3+) subsets ([7]; CD4 subsets, data not shown): no significant changes
Cells expressing PD1 ([7]; after AS1842856 treatment): no more than 10%
Naive subset (CD45RA+/CD27+/CD95−) ([7]; both CD4 and CD8 T cells): sharp decrease
TSCM subset (CD45RA+/CD27+/CD95+) ([7]; both CD4 and CD8 T cells): strong increase
PD1 expression ([7]; both CD8+ and CD4+ cells): small but significant increase
CD8 expression ([7]; data not shown): decreased expression
Tfh (CXCR5+, BcL-6+) subset ([7]; data not shown): slight increase
TIGIT expression ([7]; reaching significance only in CD8+ T cells): consistent increase
CD62L expression in Jurkat T cells with FOXO1 H215R mutant (FOXO1; Jurkat T cell line transfected with FOXO1 H215R mutant, 48 hours, data not shown): could not be further decreased
CD62L expression (FOXO1; primary T cells): decrease
CFSE dilution peaks ([8]; after 60h of stimulation): greater number of CFSE dilution peaks
Time to proliferation after stimulation ([8]; anti-CD3/CD28 beads, CFSE): 40 h
